The target in this test is Tyrosine-protein kinase JAK2 (Homo sapiens, UniProt O60674). The experiment in a line: Tyrosine Kinase Assay: The assays were performed in V-bottom 384-well plates. […] The reaction was initiated by the combination of JAK2 with substrates and test compounds. The reaction was incubated at room temperature for 60 min. and terminated by adding 45 ul of 35 mM EDTA to each sample. The reaction mixture was analyzed on the Caliper LABCHIP 3000 by electrophoretic separation of the fluorescent substrate and phosphorylated product.
Tyrosine-protein kinase JAK2, sequence (O60674 whole entry): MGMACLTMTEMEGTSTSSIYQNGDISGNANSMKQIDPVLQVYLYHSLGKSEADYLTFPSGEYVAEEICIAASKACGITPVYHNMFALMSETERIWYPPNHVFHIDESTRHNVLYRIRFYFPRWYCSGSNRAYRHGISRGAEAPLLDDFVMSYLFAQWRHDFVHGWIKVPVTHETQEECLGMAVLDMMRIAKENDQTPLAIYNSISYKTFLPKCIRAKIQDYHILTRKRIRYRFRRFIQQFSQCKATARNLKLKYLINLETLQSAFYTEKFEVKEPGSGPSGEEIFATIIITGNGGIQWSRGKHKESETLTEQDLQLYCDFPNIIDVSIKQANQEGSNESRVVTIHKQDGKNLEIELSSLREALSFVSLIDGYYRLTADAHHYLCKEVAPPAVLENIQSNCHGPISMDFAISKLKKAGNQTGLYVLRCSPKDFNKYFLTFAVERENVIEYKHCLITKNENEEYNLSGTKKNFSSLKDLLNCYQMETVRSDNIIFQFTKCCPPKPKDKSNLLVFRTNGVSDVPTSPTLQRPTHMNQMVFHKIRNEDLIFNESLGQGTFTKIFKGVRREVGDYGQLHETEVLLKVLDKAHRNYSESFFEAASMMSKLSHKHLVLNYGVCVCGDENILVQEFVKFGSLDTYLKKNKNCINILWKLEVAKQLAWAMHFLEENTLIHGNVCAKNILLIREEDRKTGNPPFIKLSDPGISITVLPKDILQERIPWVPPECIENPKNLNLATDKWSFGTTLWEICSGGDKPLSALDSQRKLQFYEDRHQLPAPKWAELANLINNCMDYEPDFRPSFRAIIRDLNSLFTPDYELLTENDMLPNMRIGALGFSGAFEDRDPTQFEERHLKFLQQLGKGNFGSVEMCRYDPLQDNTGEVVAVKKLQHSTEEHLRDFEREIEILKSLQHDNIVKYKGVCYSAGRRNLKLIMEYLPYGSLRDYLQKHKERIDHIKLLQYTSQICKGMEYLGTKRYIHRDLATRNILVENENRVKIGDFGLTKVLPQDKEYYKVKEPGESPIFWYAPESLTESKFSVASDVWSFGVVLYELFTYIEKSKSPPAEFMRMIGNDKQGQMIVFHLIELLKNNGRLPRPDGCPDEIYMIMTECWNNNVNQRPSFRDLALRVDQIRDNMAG

The IC50 is the midpoint of a concentration-inhibition curve. For the compound `COc1cccc(-c2cc(C(N)=O)c3[nH]c4cc(NC(=O)OC(C)(C)C)ccc4c3c2)c1`, the IC50 was determined as 160 nM.
In the case of `COc1ccc(-c2cc(C(N)=O)c3[nH]c4cc(C(=O)N5CCCC(C)(O)C5)ccc4c3c2)cc1F` (configuration not stated) it was 1 nM.
